Test results from the supplement of paper PMC11208160.

Assay: recombinant UMI read abundance after kanamycin selection (control-corrected) (log10(CPM+1)); higher = more efficient recombination; extreme values may be limits of the assay; sequences stand for … in AGTGCAGAGAAAATCGGCCAGTTTTCTCTGCCTGCAGTCCGCATGCCGTGGGACCCCTTGGGTTCTAACCTGTTGCCTAGATTTATGCAGCGGACTGCCTTTCTCCCAAAGTGATAAACCGG…AGGTTGGTTTCACT; site = the 11-nt donor
How it was run: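 Each donor and donor-binding-loop pair was tracked by a 12-nt UMI on a plasmid carrying a promoterless kanamycin gene. With a second plasmid supplying a fixed target and T7-inducible IS621 bridge recombinase, the pool was plated in Escherichia coli on IPTG (0.07 mM) plus kanamycin or unselected. Sequencing of recombinant UMIs across the donor–target junction gave counts expressed as log10(CPM+1) after replicate averaging and control-derived scaling.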
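Also: IS621 bridge recombinase in Escherichia coli cells against a fixed T5 target plasmid.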

| Sequence | recombinant UMI read abundance (log10) |
| --- | --- |
| GGACGTCCATGGACCGGTTTTCCCGGTAATCCGTATTTGCC (site GGACGTCCTGG) | 1.75 |
| GGACTAGCATGGACCGGTTTTCCCGGTAATCCGTATTTGCG (site GGACTAGCTCG) | 2.05 |
| GGACTCACATGGACCGGTTTTCCCGGTAATCCGTATTTGCA (site GGACTCACTTG) | 2.37 |
| GGAGCCCCATGGACCGGTTTTCCCGGTAATCCGTATTTGCG (site GGAGCCCCTCG) | 0.00647 |
| GGAGCGACATGGACCGGTTTTCCCGGTAATCCGTATTTGGA (site GGAGCGACTTC) | 0.237 |
| GGAGCGGCATGGACCGGTTTTCCCGGTAATCCGTATTTGGT (site GGAGAGGCTAC) | 0 |
| GGAGCGGCATGGACCGGTTTTCCCGGTAATCCGTATTTGGT (site GGAGCGGCTAC) | 0.387 |
| GGAGCGGCATGGACCGGTTTTCCCGGTAATCCGTATTTGGT (site GGAGGGGCTAC) | 0.00705 |
| GGAGCGGCATGGACCGGTTTTCCCGGTAATCCGTATTTGGT (site GGAGTGGCTAC) | 0.101 |
| GGAGGTTCATGGACCGGTTTTCCCGGTAATCCGTATTTGAA (site GGAGGTTCTTT) | 1.66 |
| GGAGTGCCATGGACCGGTTTTCCCGGTAATCCGTATTTGGT (site GGAGTGACTAC) | 0.00343 |
| GGAGTGCCATGGACCGGTTTTCCCGGTAATCCGTATTTGGT (site GGAGTGCCTAC) | 0.0291 |
| GGAGTGCCATGGACCGGTTTTCCCGGTAATCCGTATTTGGT (site GGAGTGGCTAC) | 0.00926 |
| GGAGTGCCATGGACCGGTTTTCCCGGTAATCCGTATTTGGT (site GGAGTGTCTAC) | 1.21 |
| GGAGTGGCATGGACCGGTTTTCCCGGTAATCCGTATTTGGA (site GGAGTGGCTAC) | 0.0116 |
| GGAGTGGCATGGACCGGTTTTCCCGGTAATCCGTATTTGGA (site GGAGTGGCTCC) | 0.019 |
| GGAGTGGCATGGACCGGTTTTCCCGGTAATCCGTATTTGGA (site GGAGTGGCTGC) | 0 |
| GGAGTGGCATGGACCGGTTTTCCCGGTAATCCGTATTTGGA (site GGAGTGGCTTC) | 0.645 |
| GGATATACATGGACCGGTTTTCCCGGTAATCCGTATTTGCC (site GGATAAACTGG) | 0 |
| GGATATACATGGACCGGTTTTCCCGGTAATCCGTATTTGCC (site GGATACACTGG) | 0.982 |
| GGATATACATGGACCGGTTTTCCCGGTAATCCGTATTTGCC (site GGATAGACTGG) | 0.756 |
| GGATATACATGGACCGGTTTTCCCGGTAATCCGTATTTGCC (site GGATATACTGG) | 1.81 |
| GGATCACCATGGACCGGTTTTCCCGGTAATCCGTATTTGCT (site CGATCATCTAG) | 0 |
| GGATCACCATGGACCGGTTTTCCCGGTAATCCGTATTTGCT (site GGATCACCTAG) | 0.0128 |
| GGATCAGCATGGACCGGTTTTCCCGGTAATCCGTATTTGAA (site GGATCAGCTTT) | 1.19 |

| Sequence | recombinant UMI read abundance (log10) |
| --- | --- |
| GGATCATCATGGACCGGTTTTCCCGGTAATCCGTATTTGCC (site CGATCATCTAG) | 0 |
| GGATCATCATGGACCGGTTTTCCCGGTAATCCGTATTTGCC (site GGATCATCTGG) | 0.722 |
| GGATCGTCATGGACCGGTTTTCCCGGTAATCCGTATTTGCC (site GGATCGTCTGG) | 2.05 |
| GGATGCACATGGACCGGTTTTCCCGGTAATCCGTATTTGTA (site GAATGCACTTA) | 0.31 |
| GGATGCACATGGACCGGTTTTCCCGGTAATCCGTATTTGTA (site GCATGCACTTA) | 0.0182 |
| GGATGCACATGGACCGGTTTTCCCGGTAATCCGTATTTGTA (site GGATGCACTTA) | 1.62 |
| GGATGCACATGGACCGGTTTTCCCGGTAATCCGTATTTGTA (site GTATGCACTTA) | 0.439 |
| GGATGCTCATGGACCGGTTTTCCCGGTAATCCGTATTTGCT (site GGATGCTCTAG) | 3 |
| GGATTTACATGGACCGGTTTTCCCGGTAATCCGTATTTGAG (site GGATTTACTCT) | 0.713 |
| GGCAAATCATGGACCGGTTTTCCCGGTAATCCGTATTTGCT (site GGCAAATCTAG) | 0 |
| GGCAACCCATGGACCGGTTTTCCCGGTAATCCGTATTTGTT (site GGCAACCCTAA) | 0.0163 |
| GGCAACCCATGGACCGGTTTTCCCGGTAATCCGTATTTGTT (site GGCCACCCTAA) | 0.0118 |
| GGCAACCCATGGACCGGTTTTCCCGGTAATCCGTATTTGTT (site GGCGACCCTAA) | 0.0135 |
| GGCAACCCATGGACCGGTTTTCCCGGTAATCCGTATTTGTT (site GGCTACCCTAA) | 0.0252 |
| GGCAATACATGGACCGGTTTTCCCGGTAATCCGTATTTGAA (site GGCAATACTTT) | 0.862 |
| GGCAATACATGGACCGGTTTTCCCGGTAATCCGTATTTGAA (site GGCAATCCTTT) | 0.00332 |
| GGCAATACATGGACCGGTTTTCCCGGTAATCCGTATTTGAA (site GGCAATGCTTT) | 0 |
| GGCAATACATGGACCGGTTTTCCCGGTAATCCGTATTTGAA (site GGCAATTCTTT) | 0 |
| GGCAATCCATGGACCGGTTTTCCCGGTAATCCGTATTTGAA (site AGCAATCCTTT) | 0.00634 |
| GGCAATCCATGGACCGGTTTTCCCGGTAATCCGTATTTGAA (site CGCAATCCTTT) | 0 |
| GGCAATCCATGGACCGGTTTTCCCGGTAATCCGTATTTGAA (site GACAATCCTTT) | 0 |
| GGCAATCCATGGACCGGTTTTCCCGGTAATCCGTATTTGAA (site GCCAATCCTTT) | 0 |
| GGCAATCCATGGACCGGTTTTCCCGGTAATCCGTATTTGAA (site GGAAATCCTTT) | 0 |
| GGCAATCCATGGACCGGTTTTCCCGGTAATCCGTATTTGAA (site GGCAAACCTTT) | 0 |
| GGCAATCCATGGACCGGTTTTCCCGGTAATCCGTATTTGAA (site GGCAACCCTTT) | 0.00936 |

| Sequence | recombinant UMI read abundance (log10) |
| --- | --- |
| GGCAATCCATGGACCGGTTTTCCCGGTAATCCGTATTTGAA (site GGCAAGCCTTT) | 0.0191 |
| GGCAATCCATGGACCGGTTTTCCCGGTAATCCGTATTTGAA (site GGCAATACTTT) | 0.0044 |
| GGCAATCCATGGACCGGTTTTCCCGGTAATCCGTATTTGAA (site GGCAATCCTAT) | 0 |
| GGCAATCCATGGACCGGTTTTCCCGGTAATCCGTATTTGAA (site GGCAATCCTCT) | 0.0139 |
| GGCAATCCATGGACCGGTTTTCCCGGTAATCCGTATTTGAA (site GGCAATCCTGT) | 0 |
| GGCAATCCATGGACCGGTTTTCCCGGTAATCCGTATTTGAA (site GGCAATCCTTA) | 0.00549 |
| GGCAATCCATGGACCGGTTTTCCCGGTAATCCGTATTTGAA (site GGCAATCCTTC) | 0.00387 |
| GGCAATCCATGGACCGGTTTTCCCGGTAATCCGTATTTGAA (site GGCAATCCTTG) | 0 |
| GGCAATCCATGGACCGGTTTTCCCGGTAATCCGTATTTGAA (site GGCAATCCTTT) | 0.434 |
| GGCAATCCATGGACCGGTTTTCCCGGTAATCCGTATTTGAA (site GGCAATGCTTT) | 0.00508 |
| GGCAATCCATGGACCGGTTTTCCCGGTAATCCGTATTTGAA (site GGCAATTCTTT) | 0 |
| GGCAATCCATGGACCGGTTTTCCCGGTAATCCGTATTTGAA (site GGCACTCCTTT) | 0 |
| GGCAATCCATGGACCGGTTTTCCCGGTAATCCGTATTTGAA (site GGCAGTCCTTT) | 0 |
| GGCAATCCATGGACCGGTTTTCCCGGTAATCCGTATTTGAA (site GGCATTCCTTT) | 0.0126 |
| GGCAATCCATGGACCGGTTTTCCCGGTAATCCGTATTTGAA (site GGCCATCCTTT) | 0.0223 |
| GGCAATCCATGGACCGGTTTTCCCGGTAATCCGTATTTGAA (site GGCGATCCTTT) | 0 |
| GGCAATCCATGGACCGGTTTTCCCGGTAATCCGTATTTGAA (site GGCTATCCTTT) | 0.316 |
| GGCAATCCATGGACCGGTTTTCCCGGTAATCCGTATTTGAA (site GGGAATCCTTT) | 0.0169 |
| GGCAATCCATGGACCGGTTTTCCCGGTAATCCGTATTTGAA (site GGTAATCCTTT) | 0.00354 |
| GGCAATCCATGGACCGGTTTTCCCGGTAATCCGTATTTGAA (site GTCAATCCTTT) | 0.236 |
| GGCAATCCATGGACCGGTTTTCCCGGTAATCCGTATTTGAA (site TGCAATCCTTT) | 0.0119 |
| GGCACTCCATGGACCGGTTTTCCCGGTAATCCGTATTTGAA (site GGCAATCCTTT) | 0 |
| GGCACTCCATGGACCGGTTTTCCCGGTAATCCGTATTTGAA (site GGCACTCCTTT) | 0.248 |
| GGCACTCCATGGACCGGTTTTCCCGGTAATCCGTATTTGAA (site GGCAGTCCTTT) | 0.00862 |
| GGCACTCCATGGACCGGTTTTCCCGGTAATCCGTATTTGAA (site GGCATTCCTTT) | 0.00807 |
